One assay has as its target beta adrenergic receptor (Cavia porcellus, UniProt H0W3H1). The assay is described as follows: Blockade of isoprenaline inotropic effect in electrically driven guinea pig left atrium. Conditions: result in words. It is filed as cell-based.
The conditions of assay [1]: 6-week application, daily dose of 60 mg/kg b.w., i.p.; cited from earlier work.

Sequence of beta adrenergic receptor (H0W3H1 1-470): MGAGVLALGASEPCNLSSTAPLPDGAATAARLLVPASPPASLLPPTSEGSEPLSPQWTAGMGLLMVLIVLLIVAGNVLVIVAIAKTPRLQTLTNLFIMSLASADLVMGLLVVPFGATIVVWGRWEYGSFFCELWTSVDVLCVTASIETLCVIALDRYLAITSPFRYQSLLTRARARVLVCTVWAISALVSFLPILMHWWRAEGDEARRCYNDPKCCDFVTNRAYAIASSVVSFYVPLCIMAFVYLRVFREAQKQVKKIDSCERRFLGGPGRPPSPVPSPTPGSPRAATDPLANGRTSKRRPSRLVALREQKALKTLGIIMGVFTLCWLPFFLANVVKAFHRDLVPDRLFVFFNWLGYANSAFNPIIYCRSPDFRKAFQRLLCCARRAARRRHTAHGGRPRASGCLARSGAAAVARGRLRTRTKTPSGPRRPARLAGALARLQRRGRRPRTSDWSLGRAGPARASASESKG
Text for beta adrenergic receptor: Data are expressed as means±s. e. mean. IC50s for each drug were estimated through non-linear regression analysis using ISI software for a PC computer. Differences between non paired groups were compared by Student's t-test or ANOVA test with the statistical programme Stat works TM; a value of P equal or smaller than 0.05 was taken as the limit of statistical significance.
To test beta adrenergic receptor blocking effects of compounds 3a and 3b, their actions on the inotropic effects of the beta receptor agonist isoprenaline of the guinea pig left atrium were studied.
Male guinea-pigs weighing 300±400 g were killed by a blow on the head. The heart was quickly removed and placed in oxygenated Krebs-bicarbonate solution. The left atrium was carefully dissected and placed between bipolar platinum electrodes. The base of the atrium was tied to one of the electrodes and the tip to an isometric transducer connected to an amplifier and recorder (Cibertec, Madrid, Spain), with 1 g baseline tension. […]
This concentration was selected because it produced a submaximal and measurable inotropic effect that was reproducible after 7^−1° additions of isoprenaline, given at 30-min intervals. […] Each individual preparation served to provide a full concentration-response curve for a given compound, and from it IC50 was calculated.

In the case of `COC(=O)C12CCC(C)C(C)C1C1=CCC3C4(C)CCC(OCC(O)CNCC(C)C)C(C)(C)C4CCC3(C)C1(C)CC2` (stereo not drawn) [Compound 3b, methyl-3-β-[2-hydroxy-3-(isobutylamino)propoxy]-urs-12-en-28-oate], the “blockade of the isoprenaline inotropic response” value on beta adrenergic receptor is listed as “blocked the isoprenaline inotropic response almost fully”.

For `CC1(C)CC[C@]2(C(=O)O)CC[C@]3(C)C(=CC[C@@H]4[C@@]5(C)CC[C@H](O)C(C)(C)[C@@H]5CC[C@]43C)[C@@H]2C1` [Oleanolic], the “direct cardiac effect (heart rate decrease)” value in assay [1] was 34%.

As for `COC(=O)C12CCC(C)C(C)C1C1=CCC3C4(C)CCC(OCC(O)CNC(C)C)C(C)(C)C4CCC3(C)C1(C)CC2` (stereo not drawn) [Compound 3a, methyl 3-β-[2-hydroxy-3-(isopropylamino)propoxy]-urs-12-en-28-oate], the “blockade of the isoprenaline inotropic response” value on beta adrenergic receptor is “blocked the isoprenaline inotropic response almost fully”.

The values above are taken from patent publication US20190352329A1, “BETA-ADRENERGIC BLOCKING COMPOUND” (KING SAUD UNIVERSITY, priority 2018, published 2019).
